Laboratory results taken from patent US4591600A, “3-hydroxyflavones: their preparation and therapeutic application” (Societe Cortial, S.A., priority 1983, dated 1986).
Values belong to the compound of their own block, whether it stands above or below them.

How the values were obtained:
Toxicity in mice = conditions: mouse, in vivo, ip, 200 mg/kg
Method: (§1) The toxicity of the products of this invention was determined in mice.

mice = assay: Toxicity in mice
Method: as §1

[1] = test system: hypercholesterolemic mice; assay: Hypolipidemic activity in hypercholesterolemic mice; type: in vivo; conditions: 400 mg/kg orally, twice at 20 hour intervals
Method: The products, object of this invention, are useful as hypolipidemic agents. Thus, COR 1983 administered twice in a dose of 400 mg/kg orally at 20 hour intervals in hypercholesterolemic mice caused 24% reduction in cholesterolemia.

aldose reductase = molecular target: T1, aldose reductase (Bos taurus, UniProt P16116); assay: Inhibition of aldose reductase in vitro; type: biochemical; conditions: enzyme from beef crystalline lenses; glyceraldehyde reduction, NADPH spectrophotometry
T1 construct: The enzyme was extracted from beef crystalline lenses; from tissue; host or cells: beef crystalline lenses
Method: The enzyme was extracted from beef crystalline lenses by the method described by S. Hayman and J. H. Kinoshita (J. Biol. Chem. 1965, 240, (2), 877). The percentage of inhibition of the capacity of the enzyme to reduce glyceraldehyde to glycerol under the effect of the product to be tested was determined by spectrophotometric determination of the amount of NADPH reacting according to the method described by Hayman and Kinoshita.

[2] = test system: neuropathy induced by streptozotocin; assay: Streptozotocin neuropathy in rats (sciatic nerve sorbitol and inositol, glycemia); type: in vivo; conditions: for inositol level in sciatic nerves / sorbitol level in sciatic nerves: streptozotocin 100 mg/kg i.p.; for inositol level in sciatic nerves: 3rd day, controls 2.174±0.481; for sorbitol level in sciatic nerves: controls 0.819±0.215; for glycemia: streptozotocin, D 3, controls 4.72±0.60
Method: 4 batches of 10 rats weighing about 200 g were treated from D--2 to D+3 with a gummy julep of the product to be tested. At D 0 the animals received an i.p. injection of 100 mg/kg of streptozotocin dissolved in a citrate buffer. The glycemia was determined 24 hours and 3 days after injection of the diabetogenic agent. The rats were sacrificed on the 3rd day after streptozotocin injection and the sciatic nerves were removed to determine the sorbitol and inositol levels. Tested under these condition, COR 1988 caused a reduction of the sorbitol level that went from 0.819±0.215 mg/kg in the controls to 0.608±0.049 mg/kg in animals treated with 50 mg/kg and to 0.482±0.091 mg/kg in animals treated with 100 mg/kg. Also the inositol level went from 2.174±0.481 mg/kg in the controls to 1.593±0.109 mg/kg in the animals treated wtih 25 mg/kg, to 1.430+0.104 mg/kg in the animals treated with 50 mg/kg and to 1.402±0.130 mg/kg in animals treated with 100 mg/kg. The sorbitol and inositol levels after treatment were compared with the control levels by the U test of Mann and Whitney (D. Schwartz, Methodes statistique a 1' usage des medecins et biologists [Statistical method for use by physicians and biologistes], Ed. Flammarion, Paris 1963). The results obtained are significant with p<1%. Glycemia of the control animals was 4.72±0.60g/l on D 3. It went to 3.93±0.82 g/l in animals treated with […] of COR 1988 and to 3.61±0.73 g/l in animals treated with 100 mg/kg. The reduction of glycemia are significant.

Compound: O=c1c(OC2CCCCC2)c(-c2ccc(O)c(O)c2)oc2cc(O)cc(O)c12 [COR 1983, 3-cyclohexyloxy-5,7-3',4'-tetrahydroxyflavone]
- mortality (Toxicity in mice): 10%
- mortality (mice; mice, orally, in water with 6% gum, dose of 1 g/kg): no mortality
- mortality (mice; mouse, in vivo): did not cause any mortality
- reduction in cholesterolemia [1]: 24%
- IC50 (aldose reductase): 1.58 µM

- IC50 (aldose reductase): 0.501 µM
Compound: CCOc1c(-c2ccc(O)c(O)c2)oc2cc(O)ccc2c1=O [COR 1987, 3-Ethoxy-7,3',4'trihydroxyflavone]

Compound: CS(=O)(=O)Oc1c(-c2ccc(O)c(O)c2)oc2cc(O)cc(O)c2c1=O [COR 1988, 3-methanesulfonyloxy-3',4',5,7-tetrahydroxyflavone]
- mortality (mice; mice, orally, in water with 6% gum, up to a dose of 3 g/kg): did not cause any mortality
- inositol level in sciatic nerves ([2]; treated with 25 mg/kg): 1.593 ± 0.109 mg/kg
- sorbitol level in sciatic nerves ([2]; treated with 50 mg/kg D-2 to D+3, 3rd day): 0.608 ± 0.049 mg/kg
- inositol level in sciatic nerves ([2]; treated with 50 mg/kg): 1.430 ± 0.104 mg/kg
- sorbitol level in sciatic nerves ([2]; treated with 100 mg/kg D-2 to D+3, 3rd day): 0.482 ± 0.091 mg/kg
- inositol level in sciatic nerves ([2]; treated with 100 mg/kg): 1.402 ± 0.130 mg/kg
- glycemia ([2]; treated with 50 mg/kg): 3.93 ± 0.82 g/L
- glycemia ([2]; treated with 100 mg/kg): 3.61 ± 0.73 g/L
- IC50 (aldose reductase): 0.251 µM

- IC50 (aldose reductase): 3.16 µM
Compound: Cc1ccc(S(=O)(=O)Oc2c(-c3ccc(O)c(O)c3)oc3cc(O)cc(O)c3c2=O)cc1 [COR 1990, 3-Paratoluenesulfonyloxy-5,7,3',4'-tetrahydroxyflavone]
